Holding throughout (format): cell-based
Test [1] relates to isogenic LN229 gliobastoma cells. Put plainly: Anti-cancer assay against isogenic LN229 cell line set, maximum 200 μM (Example 46). To be noted: concentration up to 200 μM. As to the method:
Isogenic LN229 gliobastoma cells were maintained in Dulbecco's Modified Eagle Medium (DMEM) supplemented with 10% fetal bovine serum, 1% Penicillin/Streptomycin, and 0.1% Fungin. DAY 0: Cells were plated into sterile 96-well plates (Corning Costar 96-well) at a concentration of 500 cells/well using a Multichannel pipettor. Then, assay plates were incubated overnight in a 37° C. 5% CO2 incubator. DAY 1: Compounds were prepared as 50 mM stocks in dimethyl sulfoxide (DMSO) and stored protected from light at room temperature (RT) until use. Prior to compound addition, a two-fold serial dilution of compound stock solutions was performed in DMSO from 30 mM to 0.117 mM in a 96-well Master plate. Vehicle control wells contained DMSO. 97 μL of media was added to each well of a new 96-well plate (Daughter plate) and 3 μL of drug solution from Master plate was added to corresponding wells in the Daughter plate resulting in a 3× plate. Three replicate dilution curves of each compound were run on each assay plate. […]
Assay plates were incubated for 120 hours at 37° C. in a humidified 5% CO2 incubator. DAY 5: Following incubation, cells were fixed with 4% paraformaldehyde and stained with Hoechst dye for nuclei visualization. […] Images were acquired on a BioTek Cytation 5 Cell Imaging Multimode Reader and quantified using Cell Profiler image analysis software. […]

In test [2] the test system is LN229 gliobastoma cells MGMT−/MMR−. Put plainly: Anti-cancer assay, isogenic LN229 cells, nuclei count (Examples 43, 46). To be noted: Homo sapiens, read-out: MGMT− MMR− Activity. The text has this:
(§1) Cytotoxicity of the compounds may be measured in short-term cell viability assays against four isogenic LN229 glioblastoma cell lines engineered to be proficient or deficient in MGMT and/or MMR activity by using short hairpin RNAs (shRNAs) targeting MSH2. This approach allows for determination of the relationship between MGMT status, MMR status, and compound activity. LN229 cells are maintained in Dulbecco's Modified Eagle Medium (DMEM) supplemented with 10% fetal bovine serum, 1% Penicillin/Streptomycin, and 0.1% Fungin. DAY 0: Cells are plated into sterile 96-well plates (Corning Costar 96-well) at a concentration of 500 cells/well using a Multichannel pipettor. Then, assay plates are incubated overnight in a 37° C. 5% CO2 incubator. DAY 1: Compounds are prepared as 50 mM stocks in dimethyl sulfoxide (DMSO) and stored protected from light at room temperature (RT) until use. Prior to compound addition, a two-fold serial dilution of compound stock solutions is performed in DMSO from 30 mM to 0.117 mM in a 96-well Master plate. Vehicle control wells contain DMSO. 97 μL of media is added to each well of a new 96-well plate (Daughter plate) and 3 μL of drug solution from Master plate is added to corresponding wells in the Daughter plate resulting in a 3× plate. Three replicate dilution curves of each compound are run on each assay plate. The final concentration of compounds ranges from 300 μM to 1.171 μM (9-point, 2-fold dilution dose response curve), and the final DMSO concentration is 1%.
(§2) Assay plates are incubated for 120 hours at 37° C. in a humidified 5% CO2 incubator. DAY 5: Following incubation, cells are fixed with 4% paraformaldehyde and stained with Hoechst dye for nuclei visualization. Fixation, staining and washing is performed by using a Thermo Scientific Multidrop Combi. Images are acquired on a BioTek Cytation 5 Cell Imaging Multimode Reader and quantified using Cell Profiler image analysis software. Raw cell count data for test compounds are normalized to percent viability relative to the DMSO vehicle control.
(§3) Isogenic LN229 gliobastoma cells were maintained in Dulbecco's Modified Eagle Medium (DMEM) supplemented with 10% fetal bovine serum, 1% Penicillin/Streptomycin, and 0.1% Fungin. DAY 0: Cells were plated into sterile 96-well plates (Corning Costar 96-well) at a concentration of 500 cells/well using a Multichannel pipettor. Then, assay plates were incubated overnight in a 37° C. 5% CO2 incubator. DAY 1: Compounds were prepared as 50 mM stocks in dimethyl sulfoxide (DMSO) and stored protected from light at room temperature (RT) until use. Prior to compound addition, a two-fold serial dilution of compound stock solutions was performed in DMSO from 30 mM to 0.117 mM in a 96-well Master plate. Vehicle control wells contained DMSO. 97 μL of media was added to each well of a new 96-well plate (Daughter plate) and 3 μL of drug solution from Master plate was added to corresponding wells in the Daughter plate resulting in a 3× plate. Three replicate dilution curves of each compound were run on each assay plate. The final concentration of compounds ranged from 300 μM to 1.171 μM (9-point, 2-fold dilution dose response curve), and the final DMSO concentration was 1%.
(§4) Assay plates were incubated for 120 hours at 37° C. in a humidified 5% CO2 incubator. DAY 5: Following incubation, cells were fixed with 4% paraformaldehyde and stained with Hoechst dye for nuclei visualization. Fixation, staining and washing was performed by using a Thermo Scientific Multidrop Combi. Images were acquired on a BioTek Cytation 5 Cell Imaging Multimode Reader and quantified using Cell Profiler image analysis software. Raw cell count data for test compounds were normalized to percent viability relative to the DMSO vehicle control. […]

Test [3] has as its system LN229 gliobastoma cells MGMT−/MMR+. The description is as above. The settings on record: Homo sapiens, read-out: MGMT− MMR+ Activity.
From the text: as §1, §2, §3, §4

Test [4] relates to LN229 gliobastoma cells MGMT+/MMR+. Put plainly: Anti-cancer assay, isogenic LN229 cells, nuclei count (Example 43). The settings on record: Homo sapiens, read-out: MGMT+ MMR+ Activity.
From the text: as §1, §2, §3
(§5) Assay plates were incubated for 120 hours at 37° C. in a humidified 5% CO2 incubator. DAY 5: Following incubation, cells were fixed with 4% paraformaldehyde and stained with Hoechst dye for nuclei visualization. Fixation, staining and washing was performed by using a Thermo Scientific Multidrop Combi. Images were acquired on a BioTek Cytation 5 Cell Imaging Multimode Reader and quantified using Cell Profiler image analysis software. Raw cell count data for test compounds were normalized to percent viability relative to the DMSO vehicle control.

Test [5] concerns LN229 gliobastoma cells MGMT+/MMR−. The description is as above. To be noted: Homo sapiens, read-out: MGMT+ MMR− Activity.
From the text: as §1, §2, §3, §5

Setting [6] is: LN-229, LN229 MGMT−/MMR−, 120 hours.
Setting [7] is: LN-229, LN229 MGMT−/MMR+, 120 hours.
[8] abbreviates: LN-229, LN229 MGMT+/MMR+, 120 hours.
The mark [9] stands for this setting: LN-229, LN229 MGMT+/MMR−, 120 hours.

Read-outs that look alike come from different tables or passages of the source.

Results on 10 molecules are retold here after patent US20250066371A1, “FLUOROALKOXYALKYLENE-DIHYDROIMIDAZO[5,1-D]TETRAZINONE COMPOUNDS AND RELATED COMPOUNDS AND THEIR USE IN TREATING MEDICAL CONDITIONS” (priority 2023, published 2025).

As to `COCCn1nnc2c(C(N)=O)ncn2c1=O` [Compound A2], in test [1], the “anti-cancer activity against LN229 isogenic cell line set” value is “no detectable anti-cancer activity”.
In the case of `NC(=O)c1ncn2c(=O)n(CCOC(F)F)nnc12` [Compound I-44], the IC50 in test [2] (setting [6]), in test [3] (setting [7]), in test [4] (setting [8]) and in test [5] (setting [9]) was above 100 µM in each case.
As to `O=c1n(CCOC(F)(F)F)nnc2c(-c3nc4ccccc4[nH]3)ncn12` [II-1, 8-(1H-Benzo[d]imidazol-2-yl)-3-(2-(trifluoromethoxy)ethyl)imidazo[5,1-d][1,2,3,5]tetrazin-4(3H)-one], the IC50 is above 100 µM in test [2] (setting [6]), below 20 µM in test [3] (setting [7]), below 20 µM in test [4] (setting [8]) and 50 to 100 µM in test [5] (setting [9]).
Turning to `O=c1n(CCOC(F)(F)F)nnc2c(-c3ncc(-c4ccccc4)o3)ncn12` [II-2, 8-(5-Phenyloxazol-2-yl)-3-(2-(trifluoromethoxy)ethyl)imidazo[5,1-d][1,2,3,5]tetrazin-4(3H)-one], the IC50 was 20 to 50 µM in test [2] (setting [6]), 50 to 100 µM in test [3] (setting [7]), below 20 µM in test [4] (setting [8]) and 20 to 50 µM in test [5] (setting [9]).
In the case of `Cc1cnc(-c2ncn3c(=O)n(CCOC(F)(F)F)nnc23)o1` [II-3, 8-(5-Methyloxazol-2-yl)-3-(2-(trifluoromethoxy)ethyl) imidazo[5,1-d][1,2,3,5]tetrazin-4(3H)-one], the IC50 in test [2] (setting [6]), in test [3] (setting [7]), in test [4] (setting [8]) and in test [5] (setting [9]) was 20 to 50 µM throughout.
Consider `O=c1n(CCOC(F)(F)F)nnc2c(-c3nc4ccccc4o3)ncn12` [II-4, 8-(benzo[d]oxazol-2-yl)-3-(2-(trifluoromethoxy)ethyl) imidazo[5,1-d][1,2,3,5]tetrazin-4(3H)-one], for which the IC50 in test [2] (setting [6]) is below 20 µM; in test [3] (setting [7]), 20 to 50 µM; in test [4] (setting [8]) it was below 20 µM; in test [5] (setting [9]), below 20 µM.
In the case of `O=c1n(CCOC(F)(F)F)nnc2c(-c3ccccc3)ncn12` [II-5, 8-Phenyl-3-(2-(trifluoromethoxy)ethyl)imidazo[5,1-d][1,2,3,5]tetrazin-4(3H)-one], the IC50 in test [2] (setting [6]) is 20 to 50 µM; in test [3] (setting [7]), below 20 µM; in test [4] (setting [8]), below 20 µM; in test [5] (setting [9]) it was below 20 µM.
Take `Cc1cnc(-c2ncn3c(=O)n(CCOC(F)(F)F)nnc23)s1` [II-6, 8-(5-Methylthiazol-2-yl)-3-(2-(trifluoromethoxy)ethyl)imidazo[5,1-d][1,2,3,5]tetrazin-4(3H)-one]: the IC50 is below 20 µM in test [2] (setting [6]), 20 to 50 µM in test [3] (setting [7]), below 20 µM in test [4] (setting [8]) and below 20 µM in test [5] (setting [9]).
In the case of `O=NN(CCOC(F)(F)F)C(=O)NC1CCCCC1` [IV-1, 3-Cyclohexyl-1-nitroso-1-(2-(trifluoromethoxy)ethyl)urea], the IC50 in test [2] (LN-229, 120 h) was 20 to 50 µM; in test [3] (LN-229, 120 h), 20 to 50 µM; in test [4] (LN-229, 120 h) it was 20 to 50 µM; in test [5] (LN-229, 120 h) it was 20 to 50 µM.
Take `O=NN(CCOC(F)(F)F)C(=O)NCCOC(F)(F)F` [IV-2, 1-Nitroso-1,3-bis(2-(trifluoromethoxy)ethyl)urea]: the IC50 in test [2] (LN-229, 120 h) is 20 to 50 µM; in test [3] (LN-229, 120 h) it was 50 to 100 µM; in test [4] (LN-229, 120 h), above 100 µM; in test [5] (LN-229, 120 h), above 100 µM.
